From ChEMBL document CHEMBL5518207, “Structure Guided Discovery of Novel Pan Metallo-β-Lactamase Inhibitors with Improved Gram-Negative Bacterial Cell Penetration” (J Med Chem, 2024)

Legend:
Cytochrome P450 3A4 = Cytochrome P450 3A4 (Homo sapiens, UniProt P08684); assay: Inhibition of CYP3A4 (unknown origin); assay type: ADME
Cytochrome P450 2D6 = Cytochrome P450 2D6 (Homo sapiens, UniProt P10635); assay: Inhibition of CYP2D6 (unknown origin); assay type: ADME
[1] = Unbound fraction in rat plasma at 1 mg/kg, iv measured after 24 hrs by HPLC-MS analysis; assay type: ADME, organism-based
[2] = Volume of distribution at steady state in rat at 1 mg/kg, iv measured after 24 hrs by HPLC-MS analysis; assay type: ADME, organism-based; conditions: in vivo, read-out: Vdss
[3] = Clearance in rat at 1 mg/kg, iv measured after 24 hrs by HPLC-MS analysis; assay type: ADME, organism-based; conditions: in vivo
Pseudomonas aeruginosa [4] = assay: Potentiation of imipenem induced antibacterial activity against isogenic efflux wild type Pseudomonas aeruginosa MB9798 harbouring IMP incubated for 18 to 22 hrs imipenem and beta lactamase inhibitor by spectrophotometer based analysis; assay type: functional; conditions: time 18-22 hrs
[5] = Inhibition of GST tagged NDM-1 (unknown origin) expressed in Escherichia coli BL21 Star (DE3) competent cells using CCF2-FA as substrate incubated for 2 hrs by fluorescence based analysis
[6] = Unbound fraction in Beagle dog plasma at 1 mg/kg, iv measured after 24 hrs by HPLC-MS analysis; assay type: ADME, organism-based, Canis lupus familiaris
[7] = molecular target: Voltage-dependent L-type calcium channel subunit alpha-1C (Homo sapiens, UniProt Q13936); assay: Inhibition of Cav1.2 channel (unknown origin)
[8] = Toxicity in Beagle dog assessed as severe adverse effect at 1 mg/kg, iv measured after 24 hrs by HPLC-MS analysis; assay type: organism-based, Canis lupus familiaris; conditions: in vivo
[9] = Inhibition of GST tagged IMP-1 (unknown origin) expressed in Escherichia coli BL21 Star (DE3) competent cells using CCF2-FA as substrate incubated for 2 hrs by fluorescence based analysis
Cytochrome P450 2C8 = molecular target: T1, Cytochrome P450 2C8 (Homo sapiens, UniProt P10632); assay: Inhibition of CYP2C8 (unknown origin); assay type: ADME
T1 sequence (P10632 whole entry): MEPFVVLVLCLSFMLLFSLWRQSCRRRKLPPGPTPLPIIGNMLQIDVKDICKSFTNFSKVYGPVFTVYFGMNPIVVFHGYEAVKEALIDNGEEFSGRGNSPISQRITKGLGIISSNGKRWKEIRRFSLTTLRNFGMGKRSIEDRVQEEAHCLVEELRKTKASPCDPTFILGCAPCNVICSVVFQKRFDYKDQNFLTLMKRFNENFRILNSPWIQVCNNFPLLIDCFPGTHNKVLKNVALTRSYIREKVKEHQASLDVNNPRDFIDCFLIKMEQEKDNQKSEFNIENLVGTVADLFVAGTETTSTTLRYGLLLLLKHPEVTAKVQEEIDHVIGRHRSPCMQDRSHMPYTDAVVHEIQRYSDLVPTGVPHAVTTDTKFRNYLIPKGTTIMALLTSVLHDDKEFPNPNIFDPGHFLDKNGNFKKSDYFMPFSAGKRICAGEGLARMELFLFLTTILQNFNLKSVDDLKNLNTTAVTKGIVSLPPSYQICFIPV

[10] = AUC in Beagle dog at 1 mg/kg, iv measured after 24 hrs by HPLC-MS analysis; assay type: ADME, organism-based, Canis lupus familiaris; conditions: in vivo
Pseudomonas aeruginosa [11] = assay: Potentiation of imipenem induced antibacterial activity against isogenic efflux deleted mutant Pseudomonas aeruginosa MB9799 harbouring IMP incubated for 18 to 22 hrs imipenem and beta lactamase inhibitor by spectrophotometer based analysis; assay type: functional; conditions: time 18-22 hrs
[12] = molecular target: Voltage-gated inwardly rectifying potassium channel KCNH2 (Homo sapiens, UniProt Q12809); assay: Inhibition of human ERG; assay type: toxicity
Pseudomonas aeruginosa [13] = assay: Efflux ratio of MITC95 for potentiation of imipenem induced antibacterial activity against isogenic efflux wild type Pseudomonas aeruginosa MB9798 harbouring IMP to MITC95 for potentiation of imipenem induced antibacterial activity against isogenic efflux deleted mutant Pseudomonas aeruginosa MB9799 harbouring IMP; assay type: functional
[14] = Inhibition of GST tagged VIM-2 (unknown origin) expressed in Escherichia coli BL21 Star (DE3) competent cells using CCF2-FA as substrate incubated for 2 hrs by fluorescence based analysis
[15] = molecular target: Sodium channel protein type 5 subunit alpha (Homo sapiens, UniProt Q14524); assay: Inhibition of NaV 1.5 channel (unknown origin)
Escherichia coli = assay: Potentiation of imipenem induced antibacterial activity against Escherichia coli CLB30005 harbouring NDM-1 incubated for 18 to 22 hrs in presence of imipenem by spectrophotometer based analysis; assay type: functional; conditions: time 18-22 hrs
Serratia marcescens = assay: Potentiation of imipenem induced antibacterial activity against Serratia marcescens CL5741 harbouring IMP-1 incubated for 18 to 22 hrs imipenem by spectrophotometer based analysis; assay type: functional; conditions: time 18-22 hrs
[16] = Clearance in Beagle dog at 1 mg/kg, iv measured after 24 hrs by HPLC-MS analysis; assay type: ADME, organism-based, Canis lupus familiaris; conditions: in vivo
[17] = Cmax in rat at 1 mg/kg, iv measured after 24 hrs by HPLC-MS analysis; assay type: ADME, organism-based; conditions: in vivo
[18] = MRT in rat at 1 mg/kg, iv measured after 24 hrs by HPLC-MS analysis; assay type: ADME, organism-based; conditions: in vivo
[19] = Inhibition of GST tagged VIM-1 (unknown origin) expressed in Escherichia coli BL21 Star (DE3) competent cells using CCF2-FA as substrate incubated for 2 hrs by fluorescence based analysis
[20] = AUC in rat at 1 mg/kg, iv measured after 24 hrs by HPLC-MS analysis; assay type: ADME, organism-based; conditions: in vivo
[21] = Volume of distribution at steady state in Beagle dog at 1 mg/kg, iv measured after 24 hrs by HPLC-MS analysis; assay type: ADME, organism-based, Canis lupus familiaris; conditions: in vivo, read-out: Vdss
[22] = MRT in Beagle dog at 1 mg/kg, iv measured after 24 hrs by HPLC-MS analysis; assay type: ADME, organism-based, Canis lupus familiaris; conditions: in vivo
Klebsiella pneumoniae = assay: Potentiation of imipenem induced antibacterial activity against Klebsiella pneumoniae IHMA599644 harbouring VIM-1 incubated for 18 to 22 hrs imipenem by spectrophotometer based analysis; assay type: functional; conditions: time 18-22 hrs
[23] = molecular target: Voltage-gated potassium channel, IKs; KCNQ1(Kv7.1)/KCNE1(MinK) (Homo sapiens, UniProt P15382+P51787); assay: Inhibition of KCNQ1/KCNE1 (unknown origin); assay type: protein-complex assay
[24] = Cmax in Beagle dog at 1 mg/kg, iv measured after 24 hrs by HPLC-MS analysis; assay type: ADME, organism-based, Canis lupus familiaris; conditions: in vivo
Cytochrome P450 2C9 = Cytochrome P450 2C9 (Homo sapiens, UniProt P11712); assay: Inhibition of CYP2C9 (unknown origin); assay type: ADME
[25] = Volume of distribution at steady state in rat at 5 mg/kg, iv measured after 24 hrs by HPLC-MS analysis; assay type: ADME, organism-based; conditions: in vivo, read-out: Vdss
[26] = Toxicity in Beagle dog assessed as appearance of watery eyes at 1 mg/kg, iv measured after 24 hrs by HPLC-MS analysis; assay type: organism-based, Canis lupus familiaris; conditions: in vivo
[27] = Cmax in rat at 5 mg/kg, iv measured after 24 hrs by HPLC-MS analysis; assay type: ADME, organism-based; conditions: in vivo
[28] = Toxicity in Beagle dog assessed as increase in respiration at 1 mg/kg, iv measured after 24 hrs by HPLC-MS analysis; assay type: organism-based, Canis lupus familiaris; conditions: in vivo
[29] = Clearance in rat at 5 mg/kg, iv measured after 24 hrs by HPLC-MS analysis; assay type: ADME, organism-based; conditions: in vivo
[30] = Unbound fraction in rat plasma at 5 mg/kg, iv measured after 24 hrs by HPLC-MS analysis; assay type: ADME, organism-based
[31] = Toxicity in Beagle dog assessed as emesis at 1 mg/kg, iv measured after 24 hrs by HPLC-MS analysis; assay type: organism-based, Canis lupus familiaris; conditions: in vivo
[32] = Toxicity in Beagle dog assessed as decrease in activity at 1 mg/kg, iv measured after 24 hrs by HPLC-MS analysis; assay type: organism-based, Canis lupus familiaris; conditions: in vivo
[33] = MRT in rat at 5 mg/kg, iv measured after 24 hrs by HPLC-MS analysis; assay type: ADME, organism-based; conditions: in vivo
[34] = Toxicity in Beagle dog assessed as increase in histamine level in plasma at 1 mg/kg, iv measured upto 24 hrs by HPLC-MS analysis; assay type: organism-based, Canis lupus familiaris; conditions: in vivo
[35] = Toxicity in Beagle dog assessed as vocalization at 1 mg/kg, iv measured after 24 hrs by HPLC-MS analysis; assay type: organism-based, Canis lupus familiaris; conditions: in vivo
[36] = AUC in rat at 5 mg/kg, iv measured after 24 hrs by HPLC-MS analysis; assay type: ADME, organism-based; conditions: in vivo

Chain of Voltage-dependent L-type calcium channel subunit alpha-1C (Q13936 whole entry): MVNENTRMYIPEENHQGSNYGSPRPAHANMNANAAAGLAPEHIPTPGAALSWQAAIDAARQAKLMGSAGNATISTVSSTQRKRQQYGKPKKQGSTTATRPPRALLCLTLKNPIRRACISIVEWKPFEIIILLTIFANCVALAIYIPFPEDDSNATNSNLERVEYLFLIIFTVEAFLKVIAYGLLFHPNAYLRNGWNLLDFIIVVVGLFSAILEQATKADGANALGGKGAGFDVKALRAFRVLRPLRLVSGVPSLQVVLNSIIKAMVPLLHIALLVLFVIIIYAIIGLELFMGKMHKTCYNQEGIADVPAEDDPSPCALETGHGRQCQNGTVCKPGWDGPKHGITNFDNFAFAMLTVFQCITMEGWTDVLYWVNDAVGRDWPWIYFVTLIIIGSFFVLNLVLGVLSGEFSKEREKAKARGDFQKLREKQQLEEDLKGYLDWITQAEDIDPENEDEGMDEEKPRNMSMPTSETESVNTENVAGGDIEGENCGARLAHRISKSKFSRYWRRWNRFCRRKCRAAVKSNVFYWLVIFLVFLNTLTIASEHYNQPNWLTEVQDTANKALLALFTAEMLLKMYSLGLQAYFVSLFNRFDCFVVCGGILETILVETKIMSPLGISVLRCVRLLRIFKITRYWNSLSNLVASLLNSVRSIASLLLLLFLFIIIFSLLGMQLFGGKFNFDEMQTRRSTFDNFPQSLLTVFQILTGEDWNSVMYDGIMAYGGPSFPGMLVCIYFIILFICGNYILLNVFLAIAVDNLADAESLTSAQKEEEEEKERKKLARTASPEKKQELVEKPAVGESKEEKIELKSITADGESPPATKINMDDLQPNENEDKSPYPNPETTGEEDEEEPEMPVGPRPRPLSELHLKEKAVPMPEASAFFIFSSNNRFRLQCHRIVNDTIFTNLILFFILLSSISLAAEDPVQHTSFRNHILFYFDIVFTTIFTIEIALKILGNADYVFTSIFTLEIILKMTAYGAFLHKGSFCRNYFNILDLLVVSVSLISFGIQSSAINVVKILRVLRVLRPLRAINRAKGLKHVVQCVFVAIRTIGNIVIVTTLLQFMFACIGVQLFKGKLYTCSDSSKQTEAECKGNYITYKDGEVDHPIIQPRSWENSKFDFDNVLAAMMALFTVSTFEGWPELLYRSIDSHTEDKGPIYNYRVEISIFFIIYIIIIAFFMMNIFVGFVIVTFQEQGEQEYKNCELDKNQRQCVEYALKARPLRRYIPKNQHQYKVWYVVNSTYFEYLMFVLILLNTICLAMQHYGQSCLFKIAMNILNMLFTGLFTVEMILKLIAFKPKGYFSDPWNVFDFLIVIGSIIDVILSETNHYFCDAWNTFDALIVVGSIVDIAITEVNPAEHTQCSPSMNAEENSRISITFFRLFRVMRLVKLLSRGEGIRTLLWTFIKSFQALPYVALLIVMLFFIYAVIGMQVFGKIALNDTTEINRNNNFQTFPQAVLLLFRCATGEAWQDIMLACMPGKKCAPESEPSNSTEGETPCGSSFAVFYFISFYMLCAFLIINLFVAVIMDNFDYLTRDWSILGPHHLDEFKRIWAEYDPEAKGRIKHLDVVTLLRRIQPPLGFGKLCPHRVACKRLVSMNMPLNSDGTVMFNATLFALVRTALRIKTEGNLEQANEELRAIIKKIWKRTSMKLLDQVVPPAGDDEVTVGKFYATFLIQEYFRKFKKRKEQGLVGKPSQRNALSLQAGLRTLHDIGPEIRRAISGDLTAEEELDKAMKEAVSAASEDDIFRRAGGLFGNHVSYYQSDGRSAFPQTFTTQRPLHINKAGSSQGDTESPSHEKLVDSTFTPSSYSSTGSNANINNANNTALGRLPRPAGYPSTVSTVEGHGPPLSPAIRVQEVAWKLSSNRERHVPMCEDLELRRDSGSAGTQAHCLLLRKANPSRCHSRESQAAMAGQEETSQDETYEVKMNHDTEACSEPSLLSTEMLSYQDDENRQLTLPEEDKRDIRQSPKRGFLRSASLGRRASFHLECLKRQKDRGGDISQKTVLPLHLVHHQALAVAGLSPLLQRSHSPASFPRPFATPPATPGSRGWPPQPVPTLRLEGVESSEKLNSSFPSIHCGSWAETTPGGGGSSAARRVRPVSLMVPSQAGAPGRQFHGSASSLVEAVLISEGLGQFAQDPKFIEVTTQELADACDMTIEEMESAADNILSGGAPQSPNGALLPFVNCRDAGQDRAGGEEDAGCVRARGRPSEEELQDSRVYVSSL
Chain of Sodium channel protein type 5 subunit alpha (Q14524 whole entry): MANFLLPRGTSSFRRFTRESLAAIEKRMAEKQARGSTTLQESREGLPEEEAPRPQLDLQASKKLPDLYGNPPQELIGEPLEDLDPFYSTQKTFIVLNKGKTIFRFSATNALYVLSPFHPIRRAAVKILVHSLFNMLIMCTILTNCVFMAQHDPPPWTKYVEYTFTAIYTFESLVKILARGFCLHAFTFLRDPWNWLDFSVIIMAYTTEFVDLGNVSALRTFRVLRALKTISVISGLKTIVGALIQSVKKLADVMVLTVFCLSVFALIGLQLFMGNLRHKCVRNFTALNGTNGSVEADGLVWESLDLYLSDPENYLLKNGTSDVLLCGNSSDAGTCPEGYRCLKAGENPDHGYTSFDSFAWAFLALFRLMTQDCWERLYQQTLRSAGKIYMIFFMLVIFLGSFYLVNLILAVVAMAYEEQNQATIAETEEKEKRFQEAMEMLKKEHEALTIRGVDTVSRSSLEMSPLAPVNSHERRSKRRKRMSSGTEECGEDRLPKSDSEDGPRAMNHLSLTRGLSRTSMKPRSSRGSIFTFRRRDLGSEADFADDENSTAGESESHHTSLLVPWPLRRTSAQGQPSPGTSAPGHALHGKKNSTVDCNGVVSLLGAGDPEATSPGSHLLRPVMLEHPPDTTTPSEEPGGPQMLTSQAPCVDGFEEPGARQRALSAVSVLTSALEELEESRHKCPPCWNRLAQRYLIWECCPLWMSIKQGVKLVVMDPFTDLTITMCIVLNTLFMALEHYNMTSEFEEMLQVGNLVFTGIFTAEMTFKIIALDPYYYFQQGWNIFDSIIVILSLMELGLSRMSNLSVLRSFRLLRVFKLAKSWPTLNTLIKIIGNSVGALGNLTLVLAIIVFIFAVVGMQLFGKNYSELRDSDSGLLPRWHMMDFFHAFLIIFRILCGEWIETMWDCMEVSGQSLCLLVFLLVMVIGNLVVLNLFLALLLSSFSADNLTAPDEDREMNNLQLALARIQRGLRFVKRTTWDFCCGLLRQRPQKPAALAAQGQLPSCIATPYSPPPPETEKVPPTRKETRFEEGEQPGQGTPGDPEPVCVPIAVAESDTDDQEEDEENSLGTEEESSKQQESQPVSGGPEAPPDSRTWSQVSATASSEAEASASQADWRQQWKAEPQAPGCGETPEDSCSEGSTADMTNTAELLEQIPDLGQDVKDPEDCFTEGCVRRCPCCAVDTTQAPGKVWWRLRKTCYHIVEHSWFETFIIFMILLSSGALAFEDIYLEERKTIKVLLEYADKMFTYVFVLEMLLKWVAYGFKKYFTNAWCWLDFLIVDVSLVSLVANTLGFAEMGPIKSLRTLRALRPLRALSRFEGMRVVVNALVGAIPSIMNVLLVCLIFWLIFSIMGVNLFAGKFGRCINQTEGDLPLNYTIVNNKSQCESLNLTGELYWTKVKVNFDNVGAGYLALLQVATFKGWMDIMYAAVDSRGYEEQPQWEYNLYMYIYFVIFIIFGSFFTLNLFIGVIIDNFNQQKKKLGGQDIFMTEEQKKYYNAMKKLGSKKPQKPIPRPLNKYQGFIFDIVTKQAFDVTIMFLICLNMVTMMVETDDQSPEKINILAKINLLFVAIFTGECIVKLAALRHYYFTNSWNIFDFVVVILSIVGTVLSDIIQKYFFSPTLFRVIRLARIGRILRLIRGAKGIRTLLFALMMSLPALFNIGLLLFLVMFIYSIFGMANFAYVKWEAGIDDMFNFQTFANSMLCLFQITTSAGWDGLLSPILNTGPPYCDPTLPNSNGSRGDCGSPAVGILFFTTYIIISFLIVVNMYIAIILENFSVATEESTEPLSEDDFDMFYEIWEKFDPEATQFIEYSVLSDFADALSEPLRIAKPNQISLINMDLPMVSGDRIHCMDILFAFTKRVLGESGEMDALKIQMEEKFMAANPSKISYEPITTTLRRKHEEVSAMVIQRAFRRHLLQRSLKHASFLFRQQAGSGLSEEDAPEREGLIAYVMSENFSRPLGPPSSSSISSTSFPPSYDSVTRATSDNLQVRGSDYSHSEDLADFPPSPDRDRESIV
Chain of Cytochrome P450 2C9 (P11712 whole entry): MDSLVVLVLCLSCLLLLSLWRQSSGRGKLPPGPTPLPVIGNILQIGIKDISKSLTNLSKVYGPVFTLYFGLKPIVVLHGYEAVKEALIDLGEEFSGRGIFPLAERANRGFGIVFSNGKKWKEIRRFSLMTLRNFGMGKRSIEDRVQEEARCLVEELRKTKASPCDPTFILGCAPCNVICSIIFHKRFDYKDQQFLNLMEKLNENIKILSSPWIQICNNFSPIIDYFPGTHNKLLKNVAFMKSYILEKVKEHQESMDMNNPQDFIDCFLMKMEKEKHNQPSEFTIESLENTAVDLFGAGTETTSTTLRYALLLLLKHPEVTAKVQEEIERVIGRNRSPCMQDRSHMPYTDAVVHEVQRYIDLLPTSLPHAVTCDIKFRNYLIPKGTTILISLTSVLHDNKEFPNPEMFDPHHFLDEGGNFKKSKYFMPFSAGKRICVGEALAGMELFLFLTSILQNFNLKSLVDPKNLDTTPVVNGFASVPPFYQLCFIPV

Structure (SMILES)	fraction unbound at 24 h [1]	Vd [2]	clearance [3]	MITC95 (Pseudomonas aeruginosa [4])	IC50 [5]	fraction unbound at 24 h [6]	Activity [8]	IC50 [9]	AUC at 24 h [10]	MITC95 (Pseudomonas aeruginosa [11])	Ratio (Pseudomonas aeruginosa [13])	MITC95 (Escherichia coli)	MITC95 (Serratia marcescens)	clearance [16]	Cmax [17]	MRT [18]	IC50 [19]	AUC at 24 h [20]	MITC95 (Klebsiella pneumoniae)	Cmax [24]	also measured
Nc1nc2cccc(-c3ccc(C(F)(F)F)c(S(N)(=O)=O)c3-c3nnn[nH]3)c2[nH]1	0.065	0.38 L/kg	9.6 mL/min/kg	25 µM	0.1 nM	0.26	Non-Toxic	3.8 nM	4.34 µM·h	0.78 µM	32	0.4 µM	0.8 µM	9.1 mL/min/kg	10.8 µM	0.66 h	0.3 nM	4.1 µM·h	1.6 µM	9 µM	IC50 (Cytochrome P450 3A4): > 50000 nM; IC50 (Cytochrome P450 2D6): > 50000 nM; IC50 [7]: > 30000 nM; IC50 (Cytochrome P450 2C8): > 50000 nM; IC50 [12]: > 30000 nM; IC50 [14]: 1.3 nM; IC50 [15]: > 30000 nM; Vd [21]: 0.94 L/kg; MRT [22]: 1.72 h; IC50 [23]: > 30000 nM; IC50 (Cytochrome P450 2C9): > 50000 nM
NCCCc1ccc(-c2cccc3sc(N)nc23)c(-c2nn[nH]n2)c1S(N)(=O)=O	–	–	–	12.5 µM	0.8 nM	–	–	12 nM	–	0.8 µM	16	0.8 µM	1.6 µM	–	–	–	1.8 nM	–	1.6 µM	–	–
NS(=O)(=O)c1c(C[C@H]2CC[C@H](N)CC2)ccc(-c2ccc(C3CNC3)cc2)c1-c1nn[nH]n1	–	–	–	18 µM	4 nM	–	–	43 nM	–	1.6 µM	11	0.8 µM	3.1 µM	–	–	–	1 nM	–	1.6 µM	9.3 µM	Vd [25]: 0.39 L/kg; Activity [26]: Toxic; Cmax [27]: 84.3 µM; Activity [28]: Toxic; clearance [29]: 2.2 mL/min/kg; fraction unbound at 24 h [30]: 0.42; Activity [31]: Toxic; Activity [32]: Toxic; MRT [33]: 3.13 h; Activity [34]: Toxic; Activity [35]: Toxic; AUC at 24 h [36]: 83.7 µM·h
Nc1nc2ccc(-c3ccc(C(F)(F)F)c(S(N)(=O)=O)c3-c3nn[nH]n3)cc2s1	–	–	–	200 µM	0.8 nM	–	–	2.5 nM	–	1.56 µM	128	3.1 µM	3.1 µM	–	–	–	0.3 nM	–	12.5 µM	–	–
NS(=O)(=O)c1c(C(F)(F)F)ccc([C@H]2CC[C@H](N)CC2)c1-c1nnn[nH]1	0.78	0.45 L/kg	8.7 mL/min/kg	200 µM	13.5 nM	0.76	Non-Toxic	39.4 nM	16.7 µM·h	0.78 µM	256	0.4 µM	0.8 µM	2.6 mL/min/kg	12.7 µM	0.87 h	0.7 nM	5 µM·h	0.8 µM	15 µM	Vd [21]: 0.31 L/kg; MRT [22]: 2.03 h
